Values quoted from earlier work, collected in patent publication US20110160143A1, “Topical Acyl Glutathione Psoriasis Compositions” (priority 2009, published 2011).

System: HIV patients
Conditions: oral administration

O=C(O)CCCCC1CCSS1 (stereo not drawn) [alpha-lipoic acid, Alpha-lipoic acid]
glutathione levels: raises glutathione levels
safety and tolerability: extremely safe and well tolerated
